The values below are quoted from earlier work in patent US7842280B2, “Flexibly labeling peptides” (Case Western Reserve University, priority 2006, dated 2010).

The conditions of this data set: Gd^3+-DOTA used in clinical MRI studies; comparison value; cited from earlier work.

For `O=C([O-])CN1CCN(CC(=O)[O-])CCN(CC(=O)[O-])CCN(CC(=O)[O-])CC1.[Gd+3]` [Gd^3+-DOTA], the relaxivity is given as 3.83 m mM^−1 sec^−1.
